Assay results from patent US8895547B2, “Substituted phenyl-oxathiazine derivatives, method for producing them, drugs containing said compounds and the use thereof” (Sanofi, priority 2011, dated 2014).
pIC50: −log10 of the molar value.

Target: T1, human 11β-HSD1 (Homo sapiens, UniProt P28845)
T1 construct: host or cells: microsome fraction
Assay: Enzymatic 11beta-HSD1 test (SPA-based detection)
Format: biochemical
Conditions: human 11β-HSD1 microsome fraction, [1,2-3H]-cortisone, NADPH, 37° C. 1 hour
Description: Enzymatic 11beta-HSD1 test:
To measure the activity of the compounds, an SPA-based detection method (Solly et al. 2005) was employed. First of all, 20 μl of the human 11β-HSD1 microsome fraction (0.2 μg of protein), prepared in 50 mM HEPES, 0.1% BSA (w/v), were applied to a plate with 384 wells. The test compounds (0.09 μl) were applied to the assay plate in 100% DMSO. The reaction was started by addition of 20 μl of [1,2-^3H]-cortisone (0.1 μCi/[…]) in assay buffer comprising 25 mM HEPES, 100 mM KCl, 5 mM NaCl, 2 mM MgCl2 and 0.25 mM NADPH. The plate was agitated at 37° C. for 1 hour. At the same time, a stop solution comprising 20 mg/ml SPA-PVT beads, 1.6 mg/ml monoclonal cortisol antibody and 0.01 mM SSR110887 (inhibitor from the Biovitrium patent) in 50 mM HEPES, 1 M NaCl and 1 M KCl was stirred at room temperature. To stop the reaction, 25 μl of the stop solution were added to each well. The plate was agitated gently at room temperature for 1 further hour and then centrifuged at 500 gav for 1 minute, in order that the SPA beads could settle out. The plate was then read in a Wallac-1450-Microbeta unit with a standard SPA program (counting time 1 min/well). The comparative compound was glycyrrhetinic acid.
Protein and radioactive substrate were dispensed with a Biomek FX unit (Beckman Coulter) for handling liquids. The test compounds were added with a Cybi-Well equipped with a 90 nl pin tool (CyBio).
Lit.: Solly S, Mundt S S, Zokian H J, Juy-Fang Ding G, Hermanowski-Vosatka A, Strulovici B and Zheng W. High-throughput screening of 11β-Hydroxysteroid dehydrogenase type 1 in scintillation proximity format. Assay Drug Dev Technol 2005; 3:377-384.

T1 sequence (P28845 whole entry): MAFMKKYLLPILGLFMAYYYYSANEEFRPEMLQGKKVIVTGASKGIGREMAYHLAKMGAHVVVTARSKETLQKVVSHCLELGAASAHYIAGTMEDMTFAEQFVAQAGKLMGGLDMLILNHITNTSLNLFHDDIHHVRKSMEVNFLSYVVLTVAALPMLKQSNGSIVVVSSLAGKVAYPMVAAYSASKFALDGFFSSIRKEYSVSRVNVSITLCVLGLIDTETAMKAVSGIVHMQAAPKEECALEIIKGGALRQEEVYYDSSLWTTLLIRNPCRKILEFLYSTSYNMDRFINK

Structure (SMILES) | pIC50
CC1(C)OC(N[C@@H](CCO)c2ccccc2)=NS(=O)(=O)C1(C)c1ccccc1 (stereo partly drawn) [Example 42, (S)-3-Phenyl-3-(5,6,6-trimethyl-4,4-dioxo-5-phenyl-5,6-dihydro-4H-4lambda6-[1,4,3]oxathiazin-2-ylamino)-propan-1-ol] | 7.77
CC1(C)OC(N[C@@H](CCO)c2ccccc2F)=NS(=O)(=O)C1(C)c1cccc(N2CCN(S(C)(=O)=O)CC2)c1 (stereo partly drawn) [Example 44, (S)-3-(2-Fluorophenyl)-3-{5-[3-(4-methanesulfonyl-piperazin-1-yl)-phenyl]-5,6,6-trimethyl-4,4-dioxo-5,6-dihydro-4H-4lambda6-[1,4,3]oxathiazin-2-ylamino}-propan-1-ol] | 7.89
CC1(C)OC(N[C@@H](CCO)c2ccccc2F)=NS(=O)(=O)C1(C)c1cccc(-c2cncnc2)c1 (stereo partly drawn) [Example 46, (S)-3-(2-Fluorophenyl)-3-[5,6,6-trimethyl-4,4-dioxo-5-(3-pyrimidin-5-yl-phenyl)-5,6-dihydro-4H-4lambda6-[1,4,3]oxathiazin-2-ylamino]-propan-1-ol] | 7.74
CC1(C)OC(N[C@@H](CCO)c2ccccc2)=NS(=O)(=O)C1(F)c1cccc(Br)c1 (stereo partly drawn) [Example 50, (S)-3-[5-(3-Bromophenyl)-5-fluoro-6,6-dimethyl-4,4-dioxo-5,6-dihydro-4H-4lambda6-[1,4,3]oxathiazin-2-ylamino]-3-phenyl-propan-1-ol] | 7.40
CC1(C)OC(N[C@@H](CCO)c2ccccc2F)=NS(=O)(=O)C1c1ccc(-c2ccccc2)cc1 (stereo partly drawn) [Example 51, (S)-3-(5-Biphenyl-4-yl-6,6-dimethyl-4,4-dioxo-5,6-dihydro-4H-4lambda6-[1,4,3]oxathiazin-2-ylamino)-3-(2-fluorophenyl)-propan-1-ol] | 7.82
C[C@H](NC1=NS(=O)(=O)C(C)(c2ccc(-c3ccccc3)cc2)C(C)(C)O1)c1ccccc1F (stereo partly drawn) [Example 55, (5-Biphenyl-4-yl-5,6,6-trimethyl-4,4-dioxo-5,6-dihydro-4H-4lambda6-[1,4,3]oxathiazin-2-yl)-[(S)-1-(2-fluorophenyl)-ethyl]-amine] | 7.55
CC1(C)OC(N[C@@H](CCO)c2ccccc2F)=NS(=O)(=O)C1c1ccc(-c2ccc(F)cc2)cc1 (stereo partly drawn) [Example 65, (S)-3-[5-(4′-Fluorobiphenyl-4-yl)-6,6-dimethyl-4,4-dioxo-5,6-dihydro-4H-4lambda6-[1,4,3]oxathiazin-2-ylamino]-3-(2-fluorophenyl)-propan-1-ol] | 7.68

The remaining molecules from weak to strong by pIC50, led by results:

pIC50 | Structure (SMILES)
7.89 | COc1cccc(C2C(C)(C)OC(N[C@@H](CCO)c3ccccc3)=NS2(=O)=O)c1 (stereo partly drawn) [Example 37, (S)-3-[5-(3-Methoxy-phenyl)-6,6-dimethyl-4,4-dioxo-5,6-dihydro-4H-4lambda6-[1,4,3]oxathiazin-2-ylamino]-3-phenyl-propan-1-ol]
7.92 | Cc1ccccc1-c1ccc(C2C(C)(C)OC(N[C@@H](CCO)c3ccccc3F)=NS2(=O)=O)cc1 (stereo partly drawn) [Example 64, (S)-3-[6,6-Dimethyl-5-(2′-methyl-biphenyl-4-yl)-4,4-dioxo-5,6-dihydro-4H-4lambda6-[1,4,3]oxathiazin-2-ylamino]-3-(2-fluorophenyl)-propan-1-ol]
8.05 | CC1(C)OC(N[C@@H](CCO)c2ccccc2)=NS(=O)(=O)C1(C)c1ccc(-c2ccccc2)cc1 (stereo partly drawn) [Example 54, (S)-3-(5-Biphenyl-4-yl-5,6,6-trimethyl-4,4-dioxo-5,6-dihydro-4H-4lambda6-[1,4,3]oxathiazin-2-ylamino)-3-phenyl-propan-1-ol]
8.10 | CC1(C)OC(N[C@@H](CCO)c2ccccc2F)=NS(=O)(=O)C1(C)c1ccc(-c2ccccc2)cc1 (stereo partly drawn) [Example 53, (S)-3-(5-Biphenyl-4-yl-5,6,6-trimethyl-4,4-dioxo-5,6-dihydro-4H-4lambda6-[1,4,3]oxathiazin-2-ylamino)-3-(2-fluorophenyl)-propan-1-ol]
8.30 | CC1(C)OC(N[C@@H](CCO)c2ccccc2F)=NS(=O)(=O)C1(C)c1cccc(Br)c1 (stereo partly drawn) [Example 47, (S)-3-[5-(3-Bromophenyl)-5,6,6-trimethyl-4,4-dioxo-5,6-dihydro-4H-4lambda6-[1,4,3]oxathiazin-2-ylamino]-3-(2-fluorophenyl)-propan-1-ol]
